We go through one molecule from US20100154083A1, “Methods and Compositions for the Selection of A Transgenic Plant” (Pioneer Hi-Bred International, Inc., priority 2006, published 2010).

The assay concerns non-transgenic maize seed from inbred N46. In words: Priming matrix additive: Dormex + DMSO. The conditions noted are these: 1% DMSO without Dormex, 3 hours. Format: in vivo. The method, then: Non-transgenic maize seed from inbred N46 were primed with 0, 5, 10, 15, or 30% Dormex® solutions with and without 1% DMSO. For each treatment, 96 seeds were soaked in 50 ml of Dormex® solution in a petri dish for 3 hours at room temperature. After priming the seeds were transferred into pollination bags, and dried overnight in front of a fan. Dried primed seed were then planted into flats to germinate.

Structures are written as SMILES.

Turning to `C[S+](C)[O-]` [DMSO], the Germination % turned out to be 93%.
